This note sets out measurements from ChEMBL document CHEMBL1201862, “PubChem BioAssay data set” (2004).

What all share (test): NCI tumour cell line growth inhibition, 48 h
Assay [1] relates to 786-0.
Assay [2] deals with A498.
The test system of assay [3] is COLO 205.
Assay [4] has as its system HCT-15.
In assay [5] the test system is HOP-92.
Assay [6] has as its system Hs-578T.
Assay [7] has as its system IGROV-1.
Assay [8] deals with M14.
In assay [9] the test system is Malme-3M.
Assay [10] deals with NCI-H23.
Assay [11] relates to NCI-H460.
Assay [12] has as its system NCI-H522.
Assay [13] concerns OVCAR-3.
The subject of assay [14] is SK-MEL-5.
Assay [15] concerns SK-OV-3.
The subject of assay [16] is SW-620.
Assay [17] concerns TK-10.
Assay [18] concerns SNB-75.
In assay [19] the test system is BT-549.

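Five concentrations, 48 hours, 96-well plates. At the GI50, growth is halved.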 Active and inactive are the calls of the source. No stated cut-off is given here; in the data, active = GI50 up to about 1.1 µM and inactive = higher. A value given as a limit tells only on which side of the number the result lay.

Turning to `COc1ccc(/C=C/c2ccnc3ccccc23)cc1`, the GI50 in assay [1] is 16.8 µM (inactive); in [2] it was 14.1 µM (inactive); in [3], 16.8 µM (inactive); in assay [4], 18.1 µM; in assay [5], 4.66 µM (inactive); in [6], 22.6 µM (inactive). Further, the GI50 in [7] is 17.3 µM (inactive); in [8], 17.3 µM (inactive); in assay [9], 16.7 µM (inactive); in [10], 12.7 µM (inactive); in assay [11], 23.6 µM (inactive); in assay [12], 17.5 µM (inactive). The GI50 in assay [13] was 13.4 µM (inactive); in assay [14], 14.3 µM (inactive); in [15] it was 19.1 µM (inactive); in assay [16], 17.7 µM (inactive); in assay [17], 16.2 µM (inactive).
In the case of `CC(C)(C)CC(C)(C)N/C(N)=N/O`, the GI50 is > 100 µM (inactive) in assay [1]; > 22.6 µM (inactive) in [2]; > 100 µM (inactive) in assay [3]; 56.1 µM in [4]; 20.3 µM (inactive) in assay [5]; 15 µM (inactive) in assay [6]. Moreover, the GI50 in assay [7] is > 86.7 µM (inactive); in [8], > 100 µM (inactive); in assay [9] it was > 100 µM (inactive); in assay [10] it was > 91 µM (inactive); in [11], > 83.2 µM (inactive); in [12], > 100 µM (inactive). Moreover, the GI50 is 22.2 µM (inactive) in assay [13]; 51.8 µM (inactive) in assay [14]; 24.1 µM (inactive) in assay [15]; > 86.5 µM (inactive) in assay [18]; > 100 µM (inactive) in assay [16]; > 48.5 µM (inactive) in assay [17].
For the compound `CC(C(O)c1ccccc1)[N+](=O)[O-]` (stereo not given), the GI50 is 6.93 µM (inactive) in assay [1]; 17.5 µM (inactive) in [2]; 22.4 µM (inactive) in assay [3]; 11.5 µM in assay [4]; 28.2 µM (inactive) in assay [6]; 14.8 µM (inactive) in assay [7]. The GI50 is 6.43 µM (inactive) in [8]; 21.7 µM (inactive) in assay [9]; 32.8 µM (inactive) in assay [10]; 35.2 µM (inactive) in assay [11]; 8.71 µM (inactive) in [12]; 4.91 µM (inactive) in assay [13]. The GI50 in assay [14] is 17.9 µM (inactive); in [18] it was 40.6 µM (inactive); in assay [16], 8.81 µM (inactive); in [17], 28.6 µM (inactive).
Regarding `CN(CC(=O)O)c1ncc2c(n1)-c1ccccc1OC2`, the GI50 is > 100 µM (inactive) in [1]; > 100 µM (inactive) in [2]; > 100 µM (inactive) in assay [3]; > 100 µM in [4]; > 100 µM (inactive) in assay [5]; > 100 µM (inactive) in [6]. The GI50 in assay [7], in assay [8], in assay [9], in assay [10], in [11] and in assay [12] was > 100 µM (inactive) throughout. Besides, the GI50 in assay [14], in assay [18], in assay [16] and in assay [17] was > 100 µM (inactive) throughout.
Consider `O=C(/C=C1/Nc2ccc([N+](=O)[O-])cc2N/C1=C/C(=O)c1ccc(Cl)cc1)c1ccccc1`, for which the GI50 in [1] was 48.3 µM (inactive); in assay [2], 35.6 µM (inactive); in assay [19], > 100 µM (inactive); in assay [3], > 100 µM (inactive); in assay [4] it was > 100 µM; in assay [7] it was > 100 µM (inactive). Further, the GI50 in [8] was > 100 µM (inactive); in assay [9], > 100 µM (inactive); in [10], 20.3 µM (inactive); in assay [11] it was 32 µM (inactive); in assay [12], 12.6 µM (inactive); in assay [13], > 100 µM (inactive). For the same compound, the GI50 was > 100 µM (inactive) in assay [14], 58.7 µM (inactive) in assay [15], 19.9 µM (inactive) in assay [18] and 59 µM (inactive) in assay [17].
Regarding `C=CCOC(=O)N1c2ccc(O)cc2[C@@]23O[C@@]24[C@@H]1C#C/C=C\C#C[C@]3(O)C(=O)C[C@@H]4C`, the GI50 in assay [1] was 13.9 µM (inactive); in [2], 42.8 µM (inactive); in assay [3], 36.6 µM (inactive); in [4] it was > 100 µM; in assay [5] it was 72.9 µM (inactive); in [6], 47.5 µM (inactive). For the same compound, the GI50 in [7] is 62.8 µM (inactive); in [8], 39.7 µM (inactive); in [9], 98.2 µM (inactive); in assay [10], 22.7 µM (inactive); in assay [11], 11.5 µM (inactive); in assay [12], 40.1 µM (inactive). In addition, the GI50 in assay [14] is 21.5 µM (inactive); in [18], 27.2 µM (inactive); in assay [16] it was > 100 µM (inactive); in [17], > 100 µM (inactive).
Turning to `CCCCCCCCCCCCCCCC1(OC)C[N+](C)(C)CCO1` (stereo not given), the GI50 in assay [1] was 0.813 µM (active); in [2], 19.1 µM (inactive); in [3], 1.31 µM (inactive); in assay [4] it was 6.01 µM; in assay [6], 1.97 µM (inactive); in assay [7], 1.61 µM (inactive). Besides, the GI50 in [8] is 1.65 µM (inactive); in assay [9], 2.18 µM (inactive); in [10], 1.3 µM (inactive); in assay [11], 2.09 µM (inactive); in assay [12], 1.65 µM (inactive); in [13], 1.75 µM (inactive). Moreover, the GI50 in assay [14] is 1.9 µM (inactive); in assay [15], 4.89 µM (inactive); in assay [18] it was 0.0556 µM (active); in assay [16], 3.21 µM (inactive); in [17], 2.45 µM (inactive).
In the case of `Cc1csc(NNC(=O)Nc2ccccc2)n1`, the GI50 in assay [1] was > 100 µM (inactive); in [2], > 100 µM (inactive); in assay [3] it was > 100 µM (inactive); in [4], > 100 µM; in [6], > 100 µM (inactive); in [7] it was > 100 µM (inactive). The GI50 in [8], in assay [9], in assay [10], in assay [11], in assay [12] and in assay [14] was > 100 µM (inactive) throughout. Further, the GI50 in assay [15], in assay [18] and in [16] was > 100 µM (inactive) throughout.
With `Cc1cc2[nH]c3c(C#N)c(-c4ccccc4)c(/C=N/c4ccc(Cl)cc4)c(=O)n3c2cc1C`, the GI50 in assay [1] is > 100 µM (inactive); in assay [2], > 100 µM (inactive); in assay [19], > 100 µM (inactive); in [3], > 100 µM (inactive); in [4], > 100 µM; in assay [8], > 100 µM (inactive). The GI50 in assay [9], in [10], in [11], in assay [12], in [13] and in [14] was > 100 µM (inactive) throughout. For the same compound, the GI50 in assay [15], in assay [18], in assay [16] and in assay [17] was > 100 µM (inactive) in each case.
On to `O=C(CSc1nc2ccccc2c(=O)n1-c1ccccc1)N/N=C1\C(=O)Nc2ccc(F)cc21`, for which the GI50 in assay [1] was 2.34 µM (inactive); in assay [2], 1.85 µM (inactive); in assay [3], 2.64 µM (inactive); in assay [4], 2 µM; in [5], 1.84 µM (inactive); in [6], 4.18 µM (inactive). The GI50 in assay [8] was 1.9 µM (inactive); in assay [9], 2.01 µM (inactive); in assay [10], 3.01 µM (inactive); in assay [11] it was 2.19 µM (inactive); in [13], 1.91 µM (inactive); in assay [14], 3.3 µM (inactive). For the same compound, the figures for the GI50 in assay [15], in assay [16] and in [17] were 1.81 µM (inactive), 4.24 µM (inactive) and 1.9 µM (inactive), respectively.
As to `[O-][N+]1=[N+]([O-])[C@@H](c2ccccc2)[C@H]1c1ccccc1`, the GI50 in [1] is 13.5 µM (inactive); in [2] it was 27.1 µM (inactive); in [3] it was 19.3 µM (inactive); in assay [4], 11.4 µM; in assay [5], 15.6 µM (inactive); in assay [6] it was > 100 µM (inactive). Also, the GI50 in assay [7] is 12.6 µM (inactive); in [8], 15.8 µM (inactive); in [9], 17.7 µM (inactive); in [10], 16.5 µM (inactive); in assay [11] it was 22.4 µM (inactive); in [12], 11.5 µM (inactive). In addition, the GI50 in assay [13] was 15.2 µM (inactive); in assay [14], 16.7 µM (inactive); in [15], 32.3 µM (inactive); in assay [18], 21.3 µM (inactive); in [16] it was 14.5 µM (inactive); in assay [17] it was 17 µM (inactive).
For `Oc1ccc(O)c(Cc2ccccc2)c1`, the GI50 in assay [1] is 14.7 µM (inactive); in assay [2], 43.9 µM (inactive); in assay [3] it was 17.4 µM (inactive); in assay [4] it was 13.6 µM; in [5] it was 16.3 µM (inactive); in assay [6], 31.9 µM (inactive). For the same compound, the GI50 is 23.5 µM (inactive) in [8]; 26.4 µM (inactive) in assay [9]; 26.4 µM (inactive) in [10]; 20.7 µM (inactive) in [11]; 1.07 µM (active) in assay [13]; 17.3 µM (inactive) in [14]. Moreover, the GI50 is 32.8 µM (inactive) in assay [15], 21.3 µM (inactive) in assay [16] and 21.7 µM (inactive) in assay [17].
